Assay results: US5716797A, “Stable two-part reagent for the measurement of creatine kinase activity” (Wako Pure Chemical Industries, Ltd., priority 1995, dated 1998)
Like-named read-outs stand apart in the source and are kept apart here. Values belong to the compound of their own block, whether it stands above or below them.

Legend:
Assay type in all cases: biochemical
[1] = system: creatine kinase (CK) in human serum; experiment: CK activity measured with enzyme and substrate solutions stored at 10° C. for up to 7 months (Example 2 / Comparative Example 2); conditions: for relative value of CK activity: enzyme solution prepared at the time of use = 100%
Protocol: An enzyme solution was prepared in the same manner as in Example 1 by use of the same reagents as in Example 1 except for using 100 mM of TG in place of the CK reactivator(s) used in Example 1.
Different 10 fresh human serum samples were used for different measuring operations.
CK activity was measured by the same procedure as described in Example 1 except for using the above-mentioned enzyme solution and substrate solution, both solutions stored at 10° C. for a predetermined time, and each of the above-mentioned samples.
An enzyme solution was prepared in the same manner as in Example 1 by use of the same reagents as in Example 1 except for using 26 mM of NAC in place of the CK reactivator(s) used in Example 1.
CK activity was measured by the same procedure as described in Example 1 except for using the above-mentioned enzyme solution and substrate solution, both solutions stored at 10° C. for a predetermined period, and each of the above-mentioned samples.

[2] = system: creatine kinase (CK) in human serum; experiment: CK activity measured with enzyme solutions containing SH compounds as CK reactivator, fresh and after 1 month of storage (Example 1 / Comparative Example 1); conditions: for CK activity value, Average: average of 5 samples; for CK activity, relative value: NAC just after preparation = 100%
Protocol: The resulting solution was adjusted to pH 6.7 with sodium hydroxide and stored at a predetermined temperature for a predetermined period. The thus obtained solution were used as enzyme solutions.
(§1) Five fresh human serum samples were used.
(§2) To 8 μl of each sample was added 320 μl of each enzyme solution, followed by preincubation for 5 minutes. Then, 80 μl of the substrate solution was added to initiate the reaction and the change of absorbance per minute was measured for 3 minutes from 2 minutes after the addition of the substrate solution. The CK activity value was calculated from the molecular extinction coefficient of the NADPH produced.
(§3) As a measuring apparatus, an Autoanalyzer Hitachi Model 7150 was used, and the measurement was carried out at 37° C. by use of dual wavelength (λ1 =405 nm, λ2 =340 nm).
Enzyme solutions were prepared in the same manner as in Example 1 by use of the same reagents as in Example 1 except for using a predetermined concentration(s) of one or two SH compounds properly selected from the above-mentioned CK reactivators, in place of the CK reactivator(s) used in Example 1.
CK activity was measured in the same manner as in Example 1.

[3] = target: T1, creatine kinase (CK) in human serum (Homo sapiens, UniProt P06732); experiment: Inhibitory effect of oxidized products of SH compounds on CK activity (HK/G6PDH UV method, NAC 26 mM as reactivator); conditions: for CK activity value / CK activity value, Average: 5 mM SH compound oxidized product; for CK activity value: NAC 26 mM, 37° C.; for CK activity value, Average: average of 5 samples; for activity at 5000 µM: read-out: CK activity, relative value
T1 construct: Five fresh human serum samples were used; from tissue; host or cells: fresh human serum
Protocol: Investigation on the inhibitory effect of oxidized products of SH compounds on CK activity
Thus, oxidized products of the SH compounds, respectively, were obtained.
NAC (26 mM) as CK reactivator, each 5 mM of SH compound oxidized product obtained above, 2.6 mM of ADP, 3.9 u/ml of HK (available from Oriental Yeast Co., Ltd.), 8.0 u/ml of G6PDH (available from Oriental Yeast Co., Ltd.), 2.6 mM of NADP, 21 mM of glucose, 10 mM of magnesium acetate, 6.5 mM of AMP, 0.013 mM of APSA, 0.1% (w/v) of sodium azide and 2 mM of EDTA-2Na were dissolved in 128 mM imidazole-acetate buffer (pH 6.7). The thus obtained solutions were adjusted to pH 6.7 with sodium hydroxide to obtain enzyme solutions.
An enzyme solution containing no SH compound oxidized product was prepared as a control standard solution.
as §1, §2, §3
Tables 2 and 3 show the CK activity values of the 5 samples in each case and the average thereof.

[4] = enzyme solution prepared at the time of use, 1 month measurement, 10 samples
[5] = enzyme solution prepared at the time of use, 3 month measurement, 10 samples
[6] = enzyme solution prepared at the time of use, 6 month measurement, 10 samples
[7] = enzyme solution prepared at the time of use, 7 month measurement, 10 samples
[8] = just after preparation, average of 10 human serum samples, TG 100 mM or NAC 26 mM
[9] = solutions stored at 10° C. for 1 month, 10 samples
[10] = solutions stored at 10° C. for 3 month, 10 samples
[11] = solutions stored at 10° C. for 6 month, 10 samples
[12] = solutions stored at 10° C. for 7 month, 10 samples
[13] = Sample 1, enzyme solution just after preparation, TG 100 mM, 2ME 26 mM, 2MES 26 mM, NAC 26 mM
[14] = Sample 1, enzyme solution stored at 10° C. for 1 month, TG 100, 2ME 26, 2MES 26, NAC 26, L-cysteine 6.5, GSH 12, TDG 5, DTT 6.5 mM
[15] = Sample 1, enzyme solution stored at 20° C. for 1 month, TG 100, 2ME 26, 2MES 26, NAC 26, L-cysteine 6.5, GSH 12, TDG 5, DTT 6.5 mM
[16] = Sample 2, enzyme solution just after preparation, TG 100 mM, 2ME 26 mM, 2MES 26 mM, NAC 26 mM
[17] = Sample 2, enzyme solution stored at 10° C. for 1 month, TG 100, 2ME 26, 2MES 26, NAC 26, L-cysteine 6.5, GSH 12, TDG 5, DTT 6.5 mM
[18] = Sample 2, enzyme solution stored at 20° C. for 1 month, TG 100, 2ME 26, 2MES 26, NAC 26, L-cysteine 6.5, GSH 12, TDG 5, DTT 6.5 mM
[19] = Sample 3, enzyme solution just after preparation, TG 100 mM, 2ME 26 mM, 2MES 26 mM, NAC 26 mM
[20] = Sample 3, enzyme solution stored at 10° C. for 1 month, TG 100, 2ME 26, 2MES 26, NAC 26, L-cysteine 6.5, GSH 12, TDG 5, DTT 6.5 mM
[21] = Sample 3, enzyme solution stored at 20° C. for 1 month, TG 100, 2ME 26, 2MES 26, NAC 26, L-cysteine 6.5, GSH 12, TDG 5, DTT 6.5 mM
[22] = Sample 4, enzyme solution just after preparation, TG 100 mM, 2ME 26 mM, 2MES 26 mM, NAC 26 mM
[23] = Sample 4, enzyme solution stored at 10° C. for 1 month, TG 100, 2ME 26, 2MES 26, NAC 26, L-cysteine 6.5, GSH 12, TDG 5, DTT 6.5 mM
[24] = Sample 4, enzyme solution stored at 20° C. for 1 month, TG 100, 2ME 26, 2MES 26, NAC 26, L-cysteine 6.5, GSH 12, TDG 5, DTT 6.5 mM
[25] = Sample 5, enzyme solution just after preparation, TG 100 mM, 2ME 26 mM, 2MES 26 mM, NAC 26 mM
[26] = Sample 5, enzyme solution stored at 10° C. for 1 month, TG 100, 2ME 26, 2MES 26, NAC 26, L-cysteine 6.5, GSH 12, TDG 5, DTT 6.5 mM
[27] = Sample 5, enzyme solution stored at 20° C. for 1 month, TG 100, 2ME 26, 2MES 26, NAC 26, L-cysteine 6.5, GSH 12, TDG 5, DTT 6.5 mM
[28] = enzyme solution just after preparation, TG 100 mM, 2ME 26 mM, 2MES 26 mM, NAC 26 mM
[29] = enzyme solution stored at 10° C. for 1 month, TG 100, 2ME 26, 2MES 26, NAC 26, L-cysteine 6.5, GSH 12, TDG 5, DTT 6.5 mM
[30] = enzyme solution stored at 20° C. for 1 month, TG 100, 2ME 26, 2MES 26, NAC 26, L-cysteine 6.5, GSH 12, TDG 5, DTT 6.5 mM
[31] = enzyme solution just after preparation
[32] = enzyme solution stored at 10° C. for 1 month
[33] = enzyme solution stored at 20° C. for 1 month
[34] = average with enzyme solution containing no SH compound oxidized product = 100%, 5 mM oxidized product

T1 sequence (P06732 whole entry): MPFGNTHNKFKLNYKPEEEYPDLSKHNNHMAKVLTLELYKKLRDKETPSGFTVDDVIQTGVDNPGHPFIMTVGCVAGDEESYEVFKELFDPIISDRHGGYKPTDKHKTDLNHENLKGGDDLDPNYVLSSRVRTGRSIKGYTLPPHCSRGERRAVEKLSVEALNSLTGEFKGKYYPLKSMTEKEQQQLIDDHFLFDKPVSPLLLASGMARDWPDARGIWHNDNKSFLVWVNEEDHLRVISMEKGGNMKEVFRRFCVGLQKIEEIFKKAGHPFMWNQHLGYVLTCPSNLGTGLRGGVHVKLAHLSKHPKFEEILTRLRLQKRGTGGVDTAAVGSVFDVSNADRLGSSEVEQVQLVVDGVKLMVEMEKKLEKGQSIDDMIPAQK

Compound: CC(=O)N[C@@H](CS)C(=O)O [NAC, N-acetylcysteine]
measured value of CK activity after storage ([1]; after 3 months of storage at 10° C.): markedly lowered
average of CK activity values [1, 4]: 196 IU/l.
average of CK activity values [1, 5]: 192 IU/l.
average of CK activity values [1, 6]: 162 IU/l.
average of CK activity values [1, 7]: 192 IU/l.
average of CK activity values [1, 8]: 234 IU/l.
average of CK activity values [1, 9]: 190 IU/l.
average of CK activity values [1, 10]: 146 IU/l.
average of CK activity values [1, 11]: 64 IU/l.
average of CK activity values [1, 12]: 62 IU/l.
relative value of CK activity ([1]; stored at 10° C. for 1 month): 96.9%
relative value of CK activity ([1]; stored at 10° C. for 3 month): 76.0%
relative value of CK activity ([1]; stored at 10° C. for 6 month): 39.5%
relative value of CK activity ([1]; stored at 10° C. for 7 month): 32.3%
CK activity value [2, 13]: 183 IU/l
CK activity value [2, 14]: 184 IU/l
CK activity value [2, 15]: 166 IU/l
CK activity value [2, 16]: 544 IU/l
CK activity value [2, 17]: 550 IU/l
CK activity value [2, 18]: 499 IU/l
CK activity value [2, 19]: 151 IU/l
CK activity value [2, 20]: 152 IU/l
CK activity value [2, 21]: 136 IU/l
CK activity value [2, 22]: 56 IU/l
CK activity value [2, 23]: 55 IU/l
CK activity value [2, 24]: 50 IU/l
CK activity value [2, 25]: 87 IU/l
CK activity value [2, 26]: 88 IU/l
CK activity value [2, 27]: 78 IU/l
CK activity value, Average [2, 28]: 204 IU/l
CK activity value, Average [2, 29]: 206 IU/l
CK activity value, Average [2, 30]: 186 IU/l
CK activity, relative value [2, 31]: 100.0%
CK activity, relative value [2, 32]: 101.0%
CK activity, relative value [2, 33]: 91.2%

inhibition of CK activity by oxidized product ([3]; 5 mM oxidized product): hardly inhibited CK activity
CK activity value ([3]; Sample 1 (fresh human serum)): 136 IU/l.
CK activity value ([3]; Sample 2): 388 IU/l.
CK activity value ([3]; Sample 3): 102 IU/l.
CK activity value ([3]; Sample 4): 302 IU/l.
CK activity value ([3]; Sample 5): 90 IU/l.
CK activity value, Average [3]: 204 IU/l.
activity at 5000 µM [3, 34]: 90.2%
Compound: OC[C@H]1O[C@@H](SS[C@@H]2O[C@H](CO)[C@@H](O)[C@H](O)[C@H]2O)[C@H](O)[C@@H](O)[C@@H]1O [TDG oxidized product]

inhibition of CK activity by oxidized product ([3]; 5 mM oxidized product): hardly inhibited CK activity
CK activity value ([3]; Sample 1 (fresh human serum)): 153 IU/l.
CK activity value ([3]; Sample 2): 422 IU/l.
CK activity value ([3]; Sample 3): 112 IU/l.
CK activity value ([3]; Sample 4): 333 IU/l.
CK activity value ([3]; Sample 5): 106 IU/l.
CK activity value, Average [3]: 226 IU/l.
activity at 5000 µM [3, 34]: 100%
Compound: OCC(O)CSSCC(O)CO (stereo not shown) [TG oxidized product]

Compound: OCC(O)CS (stereo not shown) [TG, thioglycerol]
average of CK activity values [1, 4]: 204 IU/l.
average of CK activity values [1, 5]: 200 IU/l.
average of CK activity values [1, 6]: 168 IU/l.
average of CK activity values [1, 7]: 192 IU/l.
average of CK activity values [1, 8]: 240 IU/l.
average of CK activity values [1, 9]: 202 IU/l.
average of CK activity values [1, 10]: 198 IU/l.
average of CK activity values [1, 11]: 168 IU/l.
average of CK activity values [1, 12]: 190 IU/l.
relative value of CK activity ([1]; stored at 10° C. for 1 month): 99.0%
relative value of CK activity ([1]; stored at 10° C. for 3 month): 99.0%
relative value of CK activity ([1]; stored at 10° C. for 6 month): 100.0%
relative value of CK activity ([1]; stored at 10° C. for 7 month): 99.0%
retaining CK-reactivating ability for a long period of time in an aqueous solution [2]: capable of retaining CK-reactivating ability for a long period of time
CK activity value [2, 13]: 184 IU/l
CK activity value [2, 14]: 183 IU/l
CK activity value [2, 15]: 180 IU/l
CK activity value [2, 16]: 553 IU/l
CK activity value [2, 17]: 556 IU/l
CK activity value [2, 18]: 549 IU/l
CK activity value [2, 19]: 151 IU/l
CK activity value [2, 20]: 154 IU/l
CK activity value [2, 21]: 152 IU/l
CK activity value [2, 22]: 58 IU/l
CK activity value [2, 23]: 57 IU/l
CK activity value [2, 24]: 57 IU/l
CK activity value [2, 25]: 88 IU/l
CK activity value [2, 26]: 88 IU/l
CK activity value [2, 27]: 88 IU/l
CK activity value, Average [2, 28]: 207 IU/l
CK activity value, Average [2, 29]: 208 IU/l
CK activity value, Average [2, 30]: 206 IU/l
CK activity, relative value [2, 31]: 101.4%
CK activity, relative value [2, 32]: 101.9%
CK activity, relative value [2, 33]: 100.9%

Compound: c1ccc(SSc2ccccc2)cc1 [Thiophenol oxidized product]
CK activity value ([3]; Sample 1 (fresh human serum)): 73 IU/l.
CK activity value ([3]; Sample 2): 180 IU/l.
CK activity value ([3]; Sample 3): 55 IU/l.
CK activity value ([3]; Sample 4): 139 IU/l.
CK activity value ([3]; Sample 5): 50 IU/l.
CK activity value, Average [3]: 99 IU/l.
activity at 5000 µM [3]: 44.1%

Compound: Mercapto-succinic acid
CK activity value ([3]; Sample 1 (fresh human serum)): 122 IU/l.
CK activity value ([3]; Sample 2): 330 IU/l.
CK activity value ([3]; Sample 3): 98 IU/l.
CK activity value ([3]; Sample 4): 285 IU/l.
CK activity value ([3]; Sample 5): 80 IU/l.
CK activity value, Average [3]: 183 IU/l.
CK activity, relative value [3, 34]: 81.0%
